Values of other authors as cited in patent publication US8871744B2, “Compounds and methods for selectively targeting tumor-associated mucins” (B & G Partyers, LLC, priority 2010, dated 2014).

Columns and labels:
[1] = system: normal mammary epithelial cells
[2] = system: sialomucin complex/rat Muc4; details: transfected MEC, activated in fetal calf serum
NMuMG cells = NMuMG cells stimulated with TGF-β1

SMILES	epithelial to mesenchymal transition stimulated by TGF-β [1]	Muc4 protein expression [2]	morphological changes associated with EMT (NMuMG cells)	phosphorylation of Smad2 (NMuMG cells)
CN[C@@H]1C[C@H]2O[C@@](C)([C@@H]1OC)n1c3ccccc3c3c4c(c5c6ccccc6n2c5c31)C(=O)NC4 [staurosporine]	abrogated	inhibited		
NC(=O)c1ccc(-c2nc(-c3ccc4c(c3)OCO4)c(-c3ccccn3)[nH]2)cc1 [SB431542, 4-[4-(1,3-benzodioxol-5-yl)-5-(2-pyridinyl)-1H-imidazol-2-yl]benzamide]			inhibited	inhibited
